Source: US20140073634A1 (Institute For Applied Cancer Science/The University of …, priority 2012, published 2014)

The compounds below were run on 293T-HRE-GFP-luc cells (assay: Cell-based reporter assay for IC50 determinations (HRE-luciferase, hypoxia)). Conditions: 6 h, 6 hrs hypoxia (1% O2), luminescence.
Method: Cell-Based Reporter Assay for IC50 Determinations
293T-HRE-GFP-luc cells were routinely maintained in DMEM media (high glucose version with GlutaMAX and HEPES, Gibco, catalog #10564) supplemented with 10% fetal bovine serum and 2 μg/mL puromycin (Invitrogen, catalog #A11138-03) using a humidified incubator (normoxia conditions consisting of 37° C., 5% CO2 and ambient O2).
In preparation for the reporter assay, cells were harvested and resuspended in DMEM media (high glucose version with GlutaMAX and HEPES) supplemented with 10% fetal bovine serum. Cells were inoculated into 384-well white Culturplates (Perkin Elmer catalog #6007680) at a density of 12,000 cells/well in a volume of […]. The microplates were incubated overnight (approximately 17-19 hours) at 37° C. with 5% CO2 and ambient O2. Stock solutions of the test compounds were prepared in DMSO (Sigma, Catalog #D2650) and serially diluted 1:3 using DMSO. Compounds were additionally diluted (1:50) with culturemedium and 10 µL were added per well to the Culturplate. Following a 30 min. incubation under normoxia conditions, the plates were incubated in hypoxia for 6 hrs. (37° C., 5% CO2 and 1% O2). Steadylite Plus (Perkin Elmer, catalog #6016751) was then added ([…]), the plates were mixed on an orbital shaker at room temperature in the dark for 15 min., and luminescence was measured using an Envision plate reader (Perkin Elmer). IC50 values were calculated using a four-parameter logistic curve fit. Results are shown below in Table 2; ND indicates no data.

Row | Structure (SMILES) | IC50 [nM]
1 | O=c1ccc(-c2nc(-c3ccc(OC(F)(F)F)cc3)no2)cn1Cc1cccc(OCC(O)CO)c1 (stereo not shown) [Example 55, 1-(3-(2,3-Dihydroxypropoxy)benzyl)-5-(3-(4-(trifluoromethoxy)phenyl)-1,2,4-oxadiazol-5-yl)pyridin-2(1H)-one] | < 100
2 | CC(C)=Cc1cccc(Cn2cc(-c3nc(-c4ccc(OC(F)(F)F)cc4)no3)ccc2=O)c1 [Example 56, 1-(3-(2-methylprop-1-enyl)benzyl)-5-(3-(4-(trifluoromethoxy)phenyl)-1,2,4-oxadiazol-5-yl)pyridin-2(1H)-one] | < 100
3 | CC(C)(O)C(O)c1cccc(Cn2cc(-c3nc(-c4ccc(OC(F)(F)F)cc4)no3)ccc2=O)c1 (stereo not shown) [Example 57, 1-(3-(1,2-Dihydroxy-2-methylpropyl)benzyl)-5-(3-(4-(trifluoromethoxy)phenyl)-1,2,4-oxadiazol-5-yl)pyridin-2(1H)-one] | < 100
4 | O=c1ccc(-c2nc(-c3ccc(OC(F)(F)F)cc3)no2)cn1Cc1cccc(N2CCC(O)CC2)c1 [Example 58, 1-(3-(4-Hydroxypiperidin-1-yl)benzyl)-5-(3-(4-(trifluoromethoxy)phenyl)-1,2,4-oxadiazol-5-yl)pyridin-2(1H)-one] | < 100
5 | O=c1ccc(-c2nc(-c3ccc(OC(F)(F)F)cc3)no2)cn1Cc1cccc(N2CCNCC2)c1 [Example 59, 1-(3-(piperazin-1-yl)benzyl)-5-(3-(4-(trifluoromethoxy)phenyl)-1,2,4-oxadiazol-5-yl)pyridin-2(1H)-one] | < 100
6 | O=C(CO)N1CCN(c2cccc(Cn3cc(-c4nc(-c5ccc(OC(F)(F)F)cc5)no4)ccc3=O)c2)CC1 [Example 60] | < 100
7 | CS(=O)(=O)N1CCN(c2cccc(Cn3cc(-c4nc(-c5ccc(OC(F)(F)F)cc5)no4)ccc3=O)c2)CC1 [Example 61] | < 100
8 | NCC(O)COc1cccc(Cn2cc(-c3nc(-c4ccc(OC(F)(F)F)cc4)no3)ccc2=O)c1 (stereo not shown) [Example 62, 1-(3-(3-Amino-2-hydroxypropoxy)benzyl)-5-(3-(4-(trifluoromethoxy)phenyl)-1,2,4-oxadiazol-5-yl)pyridin-2(1H)-one] | < 100
9 | CN1CCN(c2cccc(Cn3cc(-c4nc(-c5ccc(C(F)(F)F)cc5)no4)ccc3=O)c2)CC1 [Example 63, 1-(3-(4-Methylpiperazin-1-yl)benzyl)-5-(3-(4-(trifluoromethyl)phenyl)-1,2,4-oxadiazol-5-yl)pyridin-2(1H)-one] | < 100
10 | COCCOc1cccc(Cn2cc(-c3noc(-c4ccc(N5CCCS5(=O)=O)cc4)n3)ccc2=O)c1 [Example 66, 5-(5-(4-(1,1-Dioxidoisothiazolidin-2-yl)phenyl)-1,2,4-oxadiazol-3-yl)-1-(3-(2-methoxyethoxy)benzyl)pyridin-2(1H)-one] | 100 to 1000
11 | COCCOc1cccc(Cn2cc(-c3noc(-c4ccc(C5CC5)cc4)n3)ccc2=O)c1 [Example 67, 5-(5-(4-Cyclopropylphenyl)-1,2,4-oxadiazol-3-yl)-1-(3-(2-methoxyethoxy)benzyl)pyridin-2(1H)-one] | < 100
12 | COCCOc1cccc(Cn2cc(-c3noc(-c4ccc(C(C)(C)C#N)cc4)n3)ccc2=O)c1 [Example 68, 2-(4-(3-(1-(3-(2-Methoxyethoxy)benzyl)-6-oxo-1,6-dihydropyridin-3-yl)-1,2,4-oxadiazol-5-yl)phenyl)-2-methylpropanenitrile] | 100 to 1000
13 | CS(=O)(=O)CCCOc1cccc(Cn2cc(-c3noc(-c4ccc(OC(F)(F)F)cc4)n3)ccc2=O)c1 [Example 69, 1-(3-(3-(Methylsulfonyl)propoxy)benzyl)-5-(5-(4-(trifluoromethoxy)phenyl)-1,2,4-oxadiazol-3-yl)pyridin-2(1H)-one] | < 100
14 | COCCOc1cccc(Cn2cc(-c3noc(-c4ccc(C(C)(C)CO)cc4)n3)ccc2=O)c1 [Example 70, 5-(5-(4-(1-Hydroxy-2-methylpropan-2-yl)phenyl)-1,2,4-oxadiazol-3-yl)-1-(3-(2-methoxyethoxy)benzyl)pyridin-2(1H)-one] | < 100
15 | COCCOc1cccc(Cn2cc(-c3noc(-c4ccc(C5(C(F)(F)F)CC5)cc4)n3)ccc2=O)c1 [Example 71, 1-(3-(2-Methoxyethoxy)benzyl)-5-(5-(4-(1-(trifluoromethyl)cyclopropyl)phenyl)-1,2,4-oxadiazol-3-yl)pyridin-2(1H)-one] | < 100
16 | COCCOc1cccc(Cn2cc(-c3noc(-c4ccc(C(C)(C)COC)cc4)n3)ccc2=O)c1 [Example 72, 15-(5-(4-(1-Methoxy-2-methylpropan-2-yl)phenyl)-1,2,4-oxadiazol-3-yl)-1-(3-(2-methoxyethoxy)benzyl)pyridin-2(1H)-one] | < 100
17 | COCCOc1cccc(Cn2cc(-c3noc(-c4ccc(C(C)(C)O)cc4)n3)ccc2=O)c1 [Example 73, 5-(5-(4-(2-Hydroxypropan-2-yl)phenyl)-1,2,4-oxadiazol-3-yl)-1-(3-(2-methoxyethoxy)benzyl)pyridin-2(1H)-one] | < 100
18 | COCCOc1cccc(Cn2cc(-c3noc(-c4ccc(C5CCOCC5)cc4)n3)ccc2=O)c1 [Example 74, 1-(3-(2-Methoxyethoxy)benzyl)-5-(5-(4-(tetrahydro-2H-pyran-4-yl)phenyl)-1,2,4-oxadiazol-3-yl)pyridin-2(1H)-one] | < 100
19 | COCCOc1cccc(Cn2cc(-c3noc(-c4ccc(C5CCSCC5)cc4)n3)ccc2=O)c1 [Example 75, 1-(3-(2-Methoxyethoxy)benzyl)-5-(5-(4-(tetrahydro-2H-thiopyran-4-yl)phenyl)-1,2,4-oxadiazol-3-yl)pyridin-2(1H)-one] | < 100
20 | CC(C)Oc1ccc(-c2nc(-c3ccc(=O)n(Cc4cccc(C(C)(C)O)c4)c3)no2)cc1 [Example 76, 1-(3-(2-Hydroxypropan-2-yl)benzyl)-5-(5-(4-isopropoxyphenyl)-1,2,4-oxadiazol-3-yl)pyridin-2(1H)-one] | < 100
21 | CS(=O)(=O)C1CCN(c2cccc(Cn3cc(-c4noc(-c5ccc(N6CCOCC6)cc5)n4)ccc3=O)c2)CC1 [Example 77, 1-(3-(4-(Methylsulfonyl)piperidin-1-yl)benzyl)-5-(5-(4-morpholinophenyl)-1,2,4-oxadiazol-3-yl)pyridin-2(1H)-one] | < 100
22 | CC(C)Oc1ccc(-c2nc(-c3ccc(=O)n(Cc4cccc(N5CCC(S(C)(=O)=O)CC5)c4)c3)no2)cc1 [Example 78, 5-(5-(4-Isopropoxyphenyl)-1,2,4-oxadiazol-3-yl)-1-(3-(4-(methylsulfonyl)piperidin-1-yl)benzyl)pyridin-2(1H)-one] | < 100
23 | COCCOc1cccc(Cn2cc(-c3nc(-c4ccc(C5(O)CCCCC5)cc4)no3)ccc2=O)c1 [Example 80, 5-(3-(4-(1-Hydroxycyclohexyl)phenyl)-1,2,4-oxadiazol-5-yl)-1-(3-(2-methoxyethoxy)benzyl)pyridin-2(1H)-one] | < 100
24 | COCCOc1cccc(Cn2cc(-c3noc(-c4ccc(C(C)(C)OC)cc4)n3)ccc2=O)c1 [Example 81, 1-(3-(2-Methoxyethoxy)benzyl)-5-(5-(4-(2-methoxypropan-2-yl)phenyl)-1,2,4-oxadiazol-3-yl)pyridin-2(1H)-one] | < 100
25 | CS(=O)(=O)C1CCN(c2cccc(Cn3nc(-c4nc(-c5ccc(OC(F)F)cc5)no4)ccc3=O)c2)CC1 [Example 82, 6-(3-(4-(Difluoromethoxy)phenyl)-1,2,4-oxadiazol-5-yl)-2-(3-(4-(methylsulfonyl)piperidin-1-yl)benzyl)pyridazin-3(2H)-one] | < 100
26 | CS(=O)(=O)C1CCN(c2cccc(Cn3nc(-c4nc(-c5ccc(N6CCOCC6)cc5)no4)ccc3=O)c2)CC1 [Example 83, 2-(3-(4-(Methylsulfonyl)piperidin-1-yl)benzyl)-6-(3-(4-morpholinophenyl)-1,2,4-oxadiazol-5-yl)pyridazin-3(2H)-one] | < 100
27 | COCCOc1cccc(Cn2cc(-c3noc(-c4ccc(C5CCCCC5)cc4)n3)ccc2=O)c1 [Example 84, 5-(5-(4-Cyclohexylphenyl)-1,2,4-oxadiazol-3-yl)-1-(3-(2-methoxyethoxy)benzyl)pyridin-2(1H)-one] | < 100
28 | COCCOc1cccc(Cn2cc(-c3noc(-c4ccc(S(=O)(=O)CC#N)cc4)n3)ccc2=O)c1 [Example 85, 2-(4-(3-(1-(3-(2-Methoxyethoxy)benzyl)-6-oxo-1,6-dihydropyridin-3-yl)-1,2,4-oxadiazol-5-yl)phenylsulfonyl)acetonitrile] | 100 to 1000
29 | COCCOc1cccc(Cn2cc(-c3noc(-c4cnc(SC)nc4)n3)ccc2=O)c1 [Example 86, 1-(3-(2-Methoxyethoxy)benzyl)-5-(5-(2-(methylthio)pyrimidin-5-yl)-1,2,4-oxadiazol-3-yl)pyridin-2(1H)-one] | < 100
30 | COCCOc1cccc(Cn2cc(-c3noc(-c4cnc(OCC(C)C)nc4)n3)ccc2=O)c1 [Example 87, 5-(5-(2-Isobutoxypyrimidin-5-yl)-1,2,4-oxadiazol-3-yl)-1-(3-(2-methoxyethoxy)benzyl)pyridin-2(1H)-one] | < 100

Same assay, conditions: 6 hrs hypoxia (1% O2), luminescence

Row | Structure (SMILES) | IC50 [nM]
31 | COCCOc1cccc(Cn2cc(-c3noc(-c4ccc(C(F)(F)F)cc4)n3)ccc2=O)c1 [Example 65, 1-(3-(2-Methoxyethoxy)benzyl)-5-(5-(4-(trifluoromethyl)phenyl)-1,2,4-oxadiazol-3-yl)pyridin-2(1H)-one] | 100 to 1000
